From BindingDB's records for patent US20230348456 (Repare Therapeutics, 2023)

molecular target: T1, Membrane-associated tyrosine- and threonine-specific cdc2-inhibitory kinase (Homo sapiens, UniProt Q99640); experiment: Enzymatic Assay
T1 sequence (Q99640 whole entry): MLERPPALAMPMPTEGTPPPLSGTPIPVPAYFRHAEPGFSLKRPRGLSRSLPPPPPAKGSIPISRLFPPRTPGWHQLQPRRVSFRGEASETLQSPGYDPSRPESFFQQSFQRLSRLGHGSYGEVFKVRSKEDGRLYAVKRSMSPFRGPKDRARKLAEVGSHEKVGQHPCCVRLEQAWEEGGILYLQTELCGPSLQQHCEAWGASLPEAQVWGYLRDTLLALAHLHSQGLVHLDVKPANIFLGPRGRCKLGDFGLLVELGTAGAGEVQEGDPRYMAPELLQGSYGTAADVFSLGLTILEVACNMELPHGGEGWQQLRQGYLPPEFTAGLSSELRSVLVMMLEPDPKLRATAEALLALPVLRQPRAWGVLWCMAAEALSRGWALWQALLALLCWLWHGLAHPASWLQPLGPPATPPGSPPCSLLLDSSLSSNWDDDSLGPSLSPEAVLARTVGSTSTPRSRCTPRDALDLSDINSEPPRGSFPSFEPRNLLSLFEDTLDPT
Protocol: Detection of Myt1 kinase activity utilized a recombinant human Myt1 kinase assay measuring the hydrolysis of ATP using a commercially available ADP-Glo Assay (ADP-Glo Kinase Assay from Promega, 10 000 assays, #V9102). Briefly, 5 μL recombinant human Myt1 (full length PKMYT1 recombinant human protein expressed in insect cells from Thermo Fisher #A33387; 80% purity) was prepared in reaction buffer (70 mM HEPES, 3 mM MgCl2, 3 mM MnCl2, 50 μg/ml PEG 20000, 3 μM Na-orthovanadate, 1.2 mM DTT) and added to 384 well white polystyrene, flat bottom well, non-treated, microplate (Corning #3572). After this, 5 μL of compounds (diluted in reaction buffer to 0.5% DMSO) was added to the microplate and the plate was spun briefly and incubated at 22 C. for 15 minutes. Ultra-Pure Adenosine Triphosphate (ATP) solution (ADP-Glo kit from Promega) was diluted in reaction buffer and 5 μL was added to the microplate, spun down briefly and incubated for 60 minutes at 30 C. The final Myt1 enzyme concentration was 18 nM and the final ATP concentration was 10 μM. After the 60-minute incubation, 15 μL of ADP-Glo reagent was added and the plate was spun briefly and sealed and incubated in the dark for 40 minutes at 22 C. Following this, 30 μL of kinase detection reagent was added per well and the plate was spun briefly, sealed and incubated for 45-60 minutes at 22 C. in the dark. Luminescence was read using the Envision (250 ms integration). T

SMILES | IC50 [nM]
Nc1ccc(-c2nc3c(Br)cc(-c4cccc5[nH]ncc45)c(N)c3c(=O)[nH]2)cn1 [US20230348456, Compound 7] | 4
Nc1c(-c2cccc3[nH]ncc23)cc(-c2cccc(OC3CCOCC3)c2)c2nc(-c3ccncc3)[nH]c(=O)c12 [US20230348456, Compound 65] | 4
Nc1c(-c2cccc3[nH]ncc23)cc(-n2cccn2)c2nc(-c3ccncc3)[nH]c(=O)c12 [US20230348456, Compound 77] | 4
Nc1c(-c2cccc3[nH]ncc23)cc(-c2nccs2)c2nc(-c3ccc(CN4CCOCC4)cc3)[nH]c(=O)c12 [US20230348456, Compound 39] | 8
Nc1c(-c2cccc3[nH]ncc23)cc(Br)c2nc(-c3ccc(N4CCC5(CC4)COC5)nc3)[nH]c(=O)c12 [US20230348456, Compound 34] | 10
